Patent US20250090699A1, “FAP TARGETING CYCLIC PEPTIDES AND CONJUGATES THEREOF” (Novartis AG, priority 2023, published 2025)
Counter-ions that a name gives are not always drawn. Starred links: 1 amine or outer side, 2 acyl side, 3 side chain; linkers in the order of their positions; H or OH if unused. Non-standard residues stand in square brackets, D forms with d. Residues, ends and D or L forms follow the SMILES beside them. Groups on a side chain read outwards from the residue. *: point of attachment. F(4OEtNHDOTA-Lu) = lutetium complex of (S)-2,2',2''-(10-(2-((2-(4-(2-amino-2-carboxyethyl)phenoxy)ethyl)amino)-2-oxoethyl)-1,4,7,10-tetraazacyclododecane-1,4,7-triyl)triacetic acid (Phe with 4-O-ethylamino-DOTA-Lu), O=C([O-])CN1CCN(CC(=O)[O-])CCN(CC(=O)NCCOc2ccc(C[C@H](N[*:1])C(=O)[*:2])cc2)CCN(CC(=O)[O-])CC1.[Lu+3]; K(COpipzaa) = N6-(4-(carboxymethyl)piperazine-1-carbonyl)-L-lysine, O=C(NCCCC[C@H](N[*:1])C(=O)[*:2])N1CCN(CC(=O)[*:3])CC1; Pyrrolidine(2S-CN,4,4-F2) = N#C[C@@H]1CC(F)(F)CN1*; Phe(4-CH2NH2) = NCc1ccc(C[C@H](N)C(=O)O)cc1; Piperazinyl(4-CH2COOH) = O=C(O)CN1CCN(*)CC1; 3Pal(6-NH2) = Nc1ccc(C[C@H](N)C(=O)O)cn1; AEF = NCCOc1ccc(C[C@H](N)C(=O)O)cc1; NMeY = CN[C@@H](Cc1ccc(O)cc1)C(=O)O; Nicotinoyl(6-F) = O=C(c1ccc(F)nc1)*; X10 = O=C([C@H]1COCCN1[*:1])[*:2]; NMeF = CN[C@@H](Cc1ccccc1)C(=O)O; Aoc(2) = CCCCCC[C@H](N)C(=O)O; Ahp(2) = CCCCC[C@H](N)C(=O)O; dPip = O=C(O)[C@H]1CCCCN1; hSer = N[C@@H](CCO)C(=O)O; dNMeA = CN[C@H](C)C(=O)O; AEEA = NCCOCCOCC(=O)O; CO = O=C([*:1])[*:2]

Columns and labels:
mouse FAP [1] = biological target: T1, mouse FAP (Mus musculus, UniProt P97321); test: Surface plasmon resonance (SPR) for peptide affinity, mouse FAP; assay type: binding
T1 construct: biotinylated His, Avi tag, mouse FAP (26-761, FAP-M82Q5); His; Avi tag (biotinylated); purchased AcroBiosystems FAP-M82Q5
T1 sequence (P97321 26-761): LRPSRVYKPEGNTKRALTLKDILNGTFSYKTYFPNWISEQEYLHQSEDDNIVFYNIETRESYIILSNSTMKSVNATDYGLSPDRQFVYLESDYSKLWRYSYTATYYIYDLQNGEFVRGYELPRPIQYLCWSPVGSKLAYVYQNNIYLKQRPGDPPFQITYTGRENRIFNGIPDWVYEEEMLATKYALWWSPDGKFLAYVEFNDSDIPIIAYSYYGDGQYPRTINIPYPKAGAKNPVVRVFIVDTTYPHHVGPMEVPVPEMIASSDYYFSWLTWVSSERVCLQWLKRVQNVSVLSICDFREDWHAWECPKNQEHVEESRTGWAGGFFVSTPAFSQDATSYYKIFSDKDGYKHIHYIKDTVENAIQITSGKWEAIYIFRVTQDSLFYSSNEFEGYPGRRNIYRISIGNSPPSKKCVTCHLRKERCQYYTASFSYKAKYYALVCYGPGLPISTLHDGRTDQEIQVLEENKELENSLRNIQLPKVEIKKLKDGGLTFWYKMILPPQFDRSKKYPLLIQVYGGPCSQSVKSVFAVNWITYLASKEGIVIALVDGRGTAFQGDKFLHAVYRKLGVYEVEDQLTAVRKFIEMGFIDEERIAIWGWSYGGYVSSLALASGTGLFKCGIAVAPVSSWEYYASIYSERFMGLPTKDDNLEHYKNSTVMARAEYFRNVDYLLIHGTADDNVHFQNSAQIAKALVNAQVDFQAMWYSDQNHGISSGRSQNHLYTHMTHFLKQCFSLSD
In short: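 Biotinylated His/Avi-tagged FAP ectodomains (human 26-760, mouse 26-761) captured or immobilized on Biacore sensor chips; peptides run at 25 °C in HBS-EP+ pH 7.6 with 2% DMSO, single-cycle kinetics, 8 concentrations. KD from 1:1 binding-model fit of sensorgrams.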

human FAP = biological target: T2, human FAP (Homo sapiens, UniProt Q12884); test: Enzymatic FAP competition assay (Z-Gly-Pro-AMC fluorescence), human FAP; assay type: biochemical; details: read-out: h. FAP, Enz., IC50
T2 construct: the biotinylated His, Avi tag, human FAP (26-760, FAP-H82Q6); His; Avi tag (biotinylated); purchased AcroBiosystems FAP-H82Q6
T2 sequence (Q12884 26-760): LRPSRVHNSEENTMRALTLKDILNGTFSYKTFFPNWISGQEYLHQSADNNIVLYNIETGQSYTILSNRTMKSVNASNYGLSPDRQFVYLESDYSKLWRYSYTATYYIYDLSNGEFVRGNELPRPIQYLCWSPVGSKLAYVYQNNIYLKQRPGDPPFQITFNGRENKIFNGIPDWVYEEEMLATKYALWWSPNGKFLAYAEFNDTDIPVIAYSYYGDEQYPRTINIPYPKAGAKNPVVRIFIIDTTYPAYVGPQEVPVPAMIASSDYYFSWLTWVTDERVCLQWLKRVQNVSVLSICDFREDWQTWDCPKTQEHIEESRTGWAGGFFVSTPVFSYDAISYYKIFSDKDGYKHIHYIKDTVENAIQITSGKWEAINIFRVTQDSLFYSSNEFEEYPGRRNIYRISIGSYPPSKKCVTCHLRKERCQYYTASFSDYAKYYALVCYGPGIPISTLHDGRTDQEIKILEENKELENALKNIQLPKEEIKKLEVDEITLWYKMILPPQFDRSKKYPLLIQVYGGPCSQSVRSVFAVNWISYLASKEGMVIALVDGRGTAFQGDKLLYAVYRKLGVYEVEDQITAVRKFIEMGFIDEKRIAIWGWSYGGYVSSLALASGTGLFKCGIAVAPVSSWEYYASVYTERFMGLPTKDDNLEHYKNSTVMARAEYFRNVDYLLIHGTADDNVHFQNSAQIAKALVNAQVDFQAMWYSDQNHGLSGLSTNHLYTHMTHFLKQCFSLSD
In short: (§1)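 Biotinylated His/Avi-tagged FAP ectodomain (human 26-760, mouse 26-761) at 0.01 nM, preincubated 24 h with peptides (14 concentrations, up to 1 μM) in pH 7.5 phosphate, 150 mM NaCl, 0.05% Tween20, 1% DMSO. Then 50 μM Z-Gly-Pro-AMC, 4 h at 22-24° C; AMC fluorescence (380/460 nm) gave IC50 from duplicate points.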

mouse FAP [2] = biological target: T1, mouse FAP; test: Enzymatic FAP competition assay (Z-Gly-Pro-AMC fluorescence), mouse FAP; assay type: biochemical; details: read-out: m. FAP, Enz., IC50
In short: as §1

Compound | Kd (mouse FAP [1]) [nM] | IC50 (human FAP) [nM] | IC50 (mouse FAP [2]) [nM]
CCCCC[C@@H]1NC(=O)[C@H](Cc2ccc(OCCN)cc2)NC(=O)[C@H](Cc2ccccc2)N(C)C(=O)CNC(=O)CNC(=O)[C@H]2CCCN2C(=O)[C@H](CC(=O)O)NC(=O)[C@H](CCCCNC(=O)N2CCN(CC(=O)O)CC2)NC(=O)CNC(=O)[C@H](Cc2c[nH]c3ccccc23)NC1=O [Example A6, 2-((9S,12S,15S,18S,24S,27S,32aR)-18-((1H-indol-3-yl)methyl)-12-(4-(2-aminoethoxy)benzyl)-9-benzyl-24-(4-(4-(carboxymethyl)piperazine-1-carboxamido)butyl)-8-methyl-1,4,7,10,13,16,19,22,25,28-decaoxo-15-pentyldotriacontahydropyrrolo[1,2-a][1,4,7,10,13,16,19,22,25,28]decaazacyclotriacontin-27-yl)acetic acid TFA salt] (cyclo([AEF][Ahp(2)]WGK([CO-Piperazinyl(4-CH2COOH)])D[dP]GG[NMeF])) | 0.188 | 0.071 | 0.178
CCCCCC[C@@H]1NC(=O)[C@H](Cc2ccc(CNC(=O)COCCOCCNC(=O)c3ccc(F)nc3)cc2)NC(=O)[C@H](Cc2ccccc2)N(C)C(=O)CNC(=O)CNC(=O)[C@H]2CCCN2C(=O)[C@H](CC(=O)O)NC(=O)[C@H](CCCCNC(=O)N2CCN(CC(=O)O)CC2)NC(=O)CNC(=O)[C@H](Cc2c[nH]c3ccccc23)NC1=O [Example C55, Gly-Gly-NMePhe-F(4amPEG2NHCOPy3(4F))-Aoc-Trp-Gly-K(COpipzaa)-Asp-D-Pro] (cyclo([Aoc(2)]WGK([CO-Piperazinyl(4-CH2COOH)])D[dP]GG[NMeF][Phe(4-CH2NH2)]([AEEA-Nicotinoyl(6-F)]))) | < 0.014 | 0.006 | 0.022
Gly-Gly-NMePhe-F(4OEtNHDOTA-Lu)-Ahp-Trp-Gly-3PyA(6NH2)-Asp-D-Pro (cyclo(GG[NMeF][F(4OEtNHDOTA-Lu)][Ahp(2)]WG[3Pal(6-NH2)]D[dP]); also: Lu complex of DOTA) [Example C24] | 0.035 | 0.013 | 0.059
CN1C(=O)CNC(=O)[C@H](CCCCN)NC(=O)[C@H]2CCCN2C(=O)[C@H](CC(=O)O)NC(=O)[C@H](Cc2ccc(O)cc2)NC(=O)CNC(=O)[C@H](Cc2c[nH]c3ccccc23)NC(=O)[C@H](CCC(=O)N2CC(F)(F)C[C@H]2C#N)NC(=O)[C@H](Cc2ccc(O)cc2)NC(=O)[C@@H]1Cc1ccccc1 [Example A29, Lys-Gly-NMePhe-Tyr-Q(Pyrro(2CN4F2))-Trp-Gly-Tyr-Asp-D-Pro] (cyclo(KG[NMeF]YE(Pyrrolidine(2S-CN,4,4-F2))WGYD[dP])) | 0.044 | 0.059 | 0.082
hSer-Gly-NMePhe-F(4amPEG2NHDOTA-Lu)-hS(Pr)-Trp-Gly-K(COpipzaa)-Asp-D-Pro [Example C4] | < 0.039 | 0.011 | 0.032
CCCCC[C@@H]1NC(=O)[C@H](Cc2ccc(O)cc2)NC(=O)[C@H](Cc2ccccc2)N(C)C(=O)CNC(=O)CNC(=O)[C@H]2COCCN2C(=O)[C@H](CC(=O)O)NC(=O)[C@H](Cc2ccc(O)cc2)NC(=O)CNC(=O)[C@H](Cc2c[nH]c3ccccc23)NC1=O [Example A63, Gly-Gly-NMePhe-Tyr-Ahp-Trp-Gly-Tyr-Asp-Mor(3R-COOH)] (cyclo([Ahp(2)]WGYD[X10]GG[NMeF]Y)) | 20 | 15 | 55
CCCCC[C@@H]1NC(=O)[C@H](Cc2ccc(O)cc2)NC(=O)[C@H](Cc2ccccc2)N(C)C(=O)CNC(=O)CNC(=O)[C@@H](C)N(C)C(=O)[C@H](CC(=O)O)NC(=O)[C@H](Cc2ccc(O)cc2)NC(=O)CNC(=O)[C@H](Cc2c[nH]c3ccccc23)NC1=O [Example A65, Gly-Gly-NMePhe-Tyr-Ahp-Trp-Gly-Tyr-Asp-D-NMeA] (cyclo([Ahp(2)]WGYD[dNMeA]GG[NMeF]Y)) | 1.8 | 0.34 | 2.8
Gly-Gly-NMePhe-F(4OEtNHDOTA-Lu)-Ahp-Trp-Gly-K(COpipzaa)-Asp-D-Pro (cyclo(GG[NMeF][F(4OEtNHDOTA-Lu)][Ahp(2)]WG[K(COpipzaa)]D[dP]); also: Lu complex of DOTA) [Example C27] | 0.102 | 0.026 | 0.072
CCCCC[C@@H]1NC(=O)[C@H](Cc2ccc(O)cc2)NC(=O)[C@H](Cc2ccccc2)N(C)C(=O)CNC(=O)CNC(=O)[C@H]2CCCCN2C(=O)[C@H](CC(=O)O)NC(=O)[C@H](Cc2ccc(O)cc2)NC(=O)CNC(=O)[C@H](Cc2c[nH]c3ccccc23)NC1=O [Example A66, Gly-Gly-NMePhe-Tyr-Ahp-Trp-Gly-Tyr-Asp-Pi(2R-COOH)] (cyclo([Ahp(2)]WGYD[dPip]GG[NMeF]Y)) | 0.46 | 0.27 | 1.2
CCCCC[C@@H]1NC(=O)[C@H](Cc2ccc(CNC(=O)COCCOCCN)cc2)NC(=O)[C@H](Cc2ccccc2)N(C)C(=O)CNC(=O)CNC(=O)[C@H]2CCCN2C(=O)[C@H](CC(=O)O)NC(=O)[C@H](Cc2ccc(O)cc2)NC(=O)CNC(=O)[C@H](Cc2c[nH]c3ccccc23)NC1=O [Example A27, Gly-Gly-NMePhe-F(4amPEG2NH2)-Ahp-Trp-Gly-Tyr-Asp-D-Pro] (cyclo([Ahp(2)]WGYD[dP]GG[NMeF][Phe(4-CH2NH2)](AEEA))) | 0.219 | 0.045 | 0.138
CCCCC[C@@H]1NC(=O)[C@H](Cc2ccc(O)cc2)NC(=O)[C@H](Cc2ccccc2)N(C)C(=O)CNC(=O)CNC(=O)[C@H]2CCCN2C(=O)[C@H](CC(=O)O)NC(=O)[C@H](Cc2ccc(O)cc2)N(C)C(=O)CNC(=O)[C@H](Cc2c[nH]c3ccccc23)NC1=O [Example A50, 2-((9S,12S,15S,18S,24S,27S,32aR)-18-((1H-indol-3-yl)methyl)-9-benzyl-12,24-bis(4-hydroxybenzyl)-8,23-dimethyl-1,4,7,10,13,16,19,22,25,28-decaoxo-15-pentyldotriacontahydropyrrolo[1,2-a][1,4,7,10,13,16,19,22,25,28]decaazacyclotriacontin-27-yl)acetic acid] (cyclo([Ahp(2)]WG[NMeY]D[dP]GG[NMeF]Y)) | 2.8 | 0.95 | 2.4
CCCCC[C@@H]1NC(=O)[C@H](Cc2ccc(OCCN)cc2)NC(=O)[C@H](Cc2ccccc2)N(C)C(=O)CNC(=O)[C@H](CCO)NC(=O)[C@H]2CCCN2C(=O)[C@H](CC(=O)O)NC(=O)[C@H](Cc2ccc(O)cc2)NC(=O)CNC(=O)[C@H](Cc2c[nH]c3ccccc23)NC1=O [Example A47, hSer-Gly-NMePhe-F(4OEtNH2)-Ahp-Trp-Gly-Tyr-Asp-D-Pro, TFA salt] (cyclo([AEF][Ahp(2)]WGYD[dP][hSer]G[NMeF])) | 0.48 | 0.181 | 0.6
